Source: US8703815B2, “Small molecules that covalently modify transthyretin” (The Scripps Research Institute, priority 2009, dated 2014)

Experiments:
[1] = target: T1, TTR in human blood plasma (Homo sapiens, UniProt P02766); assay: Modification of TTR in human blood plasma (immunocapture, RP-HPLC); assay type: binding; details: compound 10.8 μM, 24 hours, 37° C.; maximum 50%
T1 construct: RP-HPLC analysis of TTR captured from human plasma; from tissue; host or cells: human blood plasma
Description: Compounds 1-4 (10.8 μM) were incubated for 24 hours at 37° C. with human plasma, wherein the TTR concentration is 3.6-5.4 μM.
Furthermore, compound A2 was evaluated to determine its ability to bind selectively to and then react chemoselectively with TTR over the 4000+ other proteins in human blood plasma. Compound A2 (10.8 μM) was incubated with human blood plasma (TTR concentration is 3.6-5.4 μM) for 24 hours at 37° C. before immunoisolating human TTR using a Sepharose® resin-conjugated anti-TTR polyclonal antibody [Purkey et al., Proc. Natl. Acad. Sci. U.S.A. 2001, 98, 5566-5571].
The modification ratio of TTR by kinetic stabilizers in human plasma was evaluated as described [Purkey et al., Proc. Natl. Acad. Sci. U.S.A. 98:5566-5571 (2001)] with minor modifications. Briefly, compounds (7.5 μL of 1.44 mM solution in DMSO) were added to 1 mL of human plasma and incubated at 37° C. for 24 hours on a rocker (30 rpm). A 1:1 (v/v) slurry of unfunctionalized Sepharose® resin in 10 mM Tris, 140 mM NaCl, pH 8.0 (TSA) was added and the solutions were incubated for 1 hour at 4° C. on a rocker plate, followed by brief centrifugation.
Two 400 μL aliquots of the supernatants were added to 300 μL of 1:1 (v:v) slurry of anti-TTR antibody-conjugated Sepharose® resin in TSA. The solutions were gently rocked at 4° C. for 20 minutes (30 rpm), centrifuged, and supernatants were removed. The resin was washed by shaking for 1 minute in 1 mL of TSA solution containing 0.05% saponin (three times) and then 1 mL of TSA solution (twice). The TTR and bound test compound were dissociated from the resin by adding 155 μL of triethylamine (100 mM, pH 11.5) and vortexing for 1 minute. After centrifugation, 135 μL of solution containing test compound and TTR was analyzed by RP-HPLC as described above except that the linear gradients were run from 100:0 to 0:100 A:B for 45 minutes.

K15A-TTR [2] = target: T2, K15A-TTR (Homo sapiens, UniProt P02766, K35A); assay: RP-HPLC analysis of reaction with K15A-TTR homotetramer; assay type: binding
T2 construct: composed of 127-residue β-sheet-rich subunits; made in house
Text: A strictly analogous study performed with the K15A homotetrameric TTR mutant confirmed that K15 was essential for the observed chemoselective reaction between TTR and Compounds […] (FIG. 1A, bottom trace). […] However, it is important to note that Compounds 1-3 were only slightly less chemoselective (<5% reaction with K15A).
The ability of compounds A1 and A2, auxochromic analogs of previously discussed stilbenes [Klabunde et al., Nat. Struct. Biol. 2000, 7, 312-321; Connelly et al., Curr. Opin. Struc. Biol. 2010, 20, 54-62; Johnson et al., J. Med. Chem. 2008, 51, 6348-6358; Choi et al., J. Am. Chem. Soc. 2010, 132, 1359-1370; Choi et al., Nat. Chem. Biol. 2010, 6, 133-139; and Baures et al., Bioorg. Med. Chem. 1998, 6, 1389-1401] to form a chemoselective amide bond with the K15 residue of TTR was assessed by reverse-phase-HPLC and liquid chromatography-mass spectrometry analysis. […] The binding of the covalent modifier A2 to K15A-TTR (in the absence of amide bond conjugation) was confirmed by incubating A2 with K15A-TTR in phosphate buffer (pH 7) followed by K15A immunoisolation using a Sepharose® resin-conjugated anti-TTR polyclonal antibody [Purkey et al., Proc. Natl. Acad. Sci. U.S.A. 2001, 98, 5566-5571].
Recombinant WT-TTR was expressed as described previously [Lashuel et al., Biochemistry 38:13560-13573 (1999)]. For analysis of test compounds with TTR, each compound (1.5 μL in DMSO, 1.44 mM) was added to 300 μL of WT-TTR or K15A mutant TTR (3.6 μM, 10 mM sodium phosphate, 100 mM KCl, 1 mM EDTA, pH 7.0). The samples were vortexed, and incubated for 18 hours at 25° C. Reverse phase high performance liquid chromatography (RP-HPLC) was performed on a Water 600 E multi-solvent delivery system, using a Waters 486 tunable absorbance detector, a 717 autosampler, and a ThermoHypersil Keystone Betabasic-18 column μ150 Å pore size, 3 μm particle size, and mobile phase A; 0.1% TFA in 95% H2O+5% CH3CN and mobile phase B, 0.1% TFA in 95% CH3CN+5% H2O). Linear gradients were run from 100:0 to 0:100 A:B for 27 minutes.

K15A-TTR [3] = target: T2, K15A-TTR; assay: Non-covalent binding stoichiometry to K15A-TTR (immunocapture, HPLC); details: maximum of 2 equivalents, washing, high-pH dissociation
Text: K15A-TTR and any compound bound to it was immunocaptured using a Sepharose-resin-conjugated anti-TTR antibody.
The ability of compounds A1 and A2, auxochromic analogs of previously discussed stilbenes [Klabunde et al., Nat. Struct. Biol. 2000, 7, 312-321; Connelly et al., Curr. Opin. Struc. Biol. 2010, 20, 54-62; Johnson et al., J. Med. Chem. 2008, 51, 6348-6358; Choi et al., J. Am. Chem. Soc. 2010, 132, 1359-1370; Choi et al., Nat. Chem. Biol. 2010, 6, 133-139; and Baures et al., Bioorg. Med. Chem. 1998, 6, 1389-1401] to form a chemoselective amide bond with the K15 residue of TTR was assessed by reverse-phase-HPLC and liquid chromatography-mass spectrometry analysis. […]
To 1 mL of WT- or K15A-TTR (5 μM in pH 7.0 phosphate buffer) in a 2 mL Eppendorf tube was added A2 (5 μL of a 2 mM solution in DMSO, final concentration: 10 μM) and then the solution was incubated at 37° C. for 24 hours on a rocker plate (30 rpm). […] After centrifugation, the supernatant was analyzed by reverse phase HPLC on a Water 600 E multi-solvent delivery system, using a Waters 486 tunable absorbance detector, a 717 autosampler, and a ThermoHypersil Keystone Betabasic-18 column (150 Å pore size, 3 μm particle size). […]

With `Cc1cc(/C=C/c2cccc(C(=O)Sc3ccccc3)c2)cc(C)c1O` [Compound 2, (E)-S-phenyl 3-(4-hydroxy-3,5-dimethylstyryl)benzothioate] the “% Modification of TTR subunits in Human Blood Plasma” value [1] was 48% (±1.3%).

For `Cc1cc(/C=C/c2cccc(C(=O)Oc3ccc(F)cc3)c2)cc(C)c1O` [Compound 4, (E)-4-fluorophenyl 3-(4-hydroxy-3,5-dimethylstyryl)benzoate], the “reaction with K15A-TTR (in words)” value (K15A-TTR [2]) was “no reaction could be detected” and the “equivalents non-covalently bound to K15A-TTR homotetramer” value (K15A-TTR [3]) was 1.4 equivalents.

For `Cc1cc(/C=C/c2cc(C(=O)Sc3ccc(F)cc3)cc(N(C)C)c2)cc(C)c1O` [Compound A2, (E)-S-4-fluorophenyl 3-(dimethylamino)-5-(4-hydroxy-3,5-dimethylstyryl)-benzothioate], the “% Modification of TTR subunits in Human Blood Plasma” value [1] was 48%, the “reaction with K15A-TTR (in words)” value (K15A-TTR [2]) was “no conjugation” and the “equivalents non-covalently bound to K15A-TTR homotetramer” value (K15A-TTR [3]) was 0.88 equivalents.
